The values below come from patent US11672775B2, “Treprostinil prodrugs” (United Therapeutics Corporation, priority 2016, dated 2023).

The structures appear in SMILES notation.

The subject of data set [1] is Sprague Dawley rats. Put plainly: Rat intraplantar injection model, thermal pain sensitivity (Example 9). It counts as in vivo, Sprague Dawley rat. Particulars: 1 μg/mL or 100 μg/mL; 15 minutes post-administration. The protocol: Male Sprague Dawley rats (n=112) were allocated into 14 groups of 8/group. The study was run in 2 cycles, on consecutive days, 7 groups per cycle. Each cycle was composed of a Saline group, PBS group, which served as the control, and also treprostinil at a dose of 100 μg/mL or 1 μg/mL.
Animals were administered 0.1 mL of test material by subcutaneous injection into the paw pad (Intraplantar injection) at time zero. Animals were subsequently evaluated for their response to mechanical (von Frey filaments) and thermal stimuli, 15 and 90 minutes post-injection. The von Frey test was conducted prior to the thermal test, which followed immediately within minutes for each animal. In addition, clinical observation scoring of the animal's reaction to injection was conducted. FIG. 16 schematically illustrates the study design.
The sensitivity of animals to a thermal pain stimulus was assessed immediately following the von Frey test. The time until withdrawal of the right-injected leg from a heat source was measured, and the lower (faster) the time of response represents a greater sensitivity to the stimulus. The test was performed 15 and 90 minutes post-Test Item injection.

Data set [2] concerns Sprague Dawley rats. The data set can be described thus: Rat intraplantar injection model, clinical observation score (Example 10). It counts as in vivo, Sprague Dawley rat. As to the method:
(§1) Male Sprague Dawley rats (n=56) were allocated into 7 groups of 8 animals per group. […] Each group was compared to the phosphate buffer (50-mM phosphate buffer with 50-mM sodium chloride at pH=7.4) treated group, which served as the control (Group 1).
(§2) Animals were administered 0.1 mL of test material by subcutaneous injection into the paw pad (Intraplantar injection) at time zero. Then, the animals were subsequently evaluated for their response to mechanical (von Frey filaments) and thermal stimuli, 15 and 90 minutes post-injection. The von Frey test was conducted prior to the thermal test, which followed immediately within minutes for each animal. In addition, clinical observation scoring of the animal's reaction to injection was conducted.
A clinical observation score was assigned by assessing for redness, swelling and paw placement.

The test system of data set [3] is Sprague Dawley rats. Put plainly: Rat intraplantar injection model, von Frey test (Example 10). It counts as in vivo, Sprague Dawley rat. Particulars: 1 μg/mL or 100 μg/mL; 15 and 90 minutes post-injection. The protocol: as §1, §2
Mechanical pain sensitivity was tested using the von Frey test, which measures the withdrawal force threshold of the animals. The lower the force applied represents a greater sensitivity to the stimulus. The von Frey test was performed 15 and 90 minutes post-test item injection.

A further data set has as its target T1, IP1 receptor (Homo sapiens, UniProt P43119).
T1 construct: expressed in transfected cells
The data set can be described thus: cAMP assay (TR-FRET or HTRF kit, forskolin), Examples 5 and 6. It counts as cell-based. Conditions: Table 3 (Example 5); read-out: EC50, IP receptor. As to the method: (§3) [table] Prodrug XV (for structure see FIG. 10) as well as treprostinil were tested for 3 G-protein-coupled receptors (GPCRs), namely DP1, EP2, and IP, using cyclic adenosine monophosphate (cAMP) assay. Cyclic AMP assay kits: Multiscreen™ TR-FRET cAMP 1.0 No Wash Assay Kit (Multispan, Inc., Cat #MSCM01-25) and HTRF cAMP HiRange Kit (CisBio, Cat #62AM6PEC). Instruments: FlexStation III (Molecular Devices). Cyclic AMP (cAMP) Assay: cAMP assays were performed according to the manufacturer's protocol using Multiscreen™ TR-FRET cAMP 1.0 No Wash Assay Kit or HTRF cAMP HiRange Kit. […] The reaction was terminated by sequentially adding sequentially adding trFluor™ Eu-labeled cAMP and trFluor™ 650-labeled anti-cAMP antibody or D2-labeled cAMP and cryptate-labeled anti-cAMP antibody in lysis buffer. The plate was then incubated at room temperature for 60 minutes before reading fluorescent emissions at 620 nm and 665 or 668 nm with excitation at 314 nm on FlexStation III (Molecular Devices). Cyclic AMP (cAMP) assays: Cyclic AMP assay results are shown as “Ratio 665/620×10,000” (ratio of fluorescence at 665 nm and 620 nm×10,000) or “Ratio 668/620×10,000” (ratio of fluorescence at 668 nm and 620 nm×10,000). Data in graphs were represented in Mean±SD. Dose-dependent responses were fitted with sigmoidal dose-response curves allowing variable slopes using GraphPad Prism versions 4, 5 or 6 (Graphpad Prism). Treprostinil Prodrug XIV (for structure see FIG. 10) as well as treprostinil were tested for 3 G-protein-coupled receptors (GPCRs), namely DP1, EP2, and IP, using cyclin adenosine monophosphate (cAMP) assay. Cyclic AMP assay kits: Multiscreen™ TR-FRET cAMP 1.0 No Wash Assay Kit (Multispan, Inc., Cat #MSCM01-25) and HTRF cAMP HiRange Kit (CisBio, Cat #62AM6PEC). Cyclic AMP (cAMP) Assay: cAMP assays were performed according to the manufacturer's protocol using Multiscreen™ TR-FRET cAMP 1.0 No Wash Assay Kit or HTRF cAMP HiRange Kit. […] The reaction was terminated by sequentially adding sequentially adding trFluor™ Eu-labeled cAMP and trFluor™ 650-labeled anti-cAMP antibody or D2-labeled cAMP and cryptate-labeled anti-cAMP antibody in lysis buffer. The plate was then incubated at room temperature for 60 minutes before reading fluorescent emissions at 620 nm and 665 or 668 nm with excitation at 314 nm on FlexStation III (Molecular Devices). Cyclic AMP (cAMP) assays: Cyclic AMP assay results are shown as “Ratio 665/620×10,000” (ratio of fluorescence at 665 nm and 620 nm×10,000) or “Ratio 668/620×10,000” (ratio of fluorescence at 668 nm and 620 nm×10,000). Data in graphs were represented in Mean±SD. Dose-dependent responses were fitted with sigmoidal dose-response curves allowing variable slopes using GraphPad Prism versions 4, 5 or 6 (Graphpad Prism).
For orientation: cAMP levels reflect the balance of adenylyl cyclase and phosphodiesterase activity.

The next data set concerns the target T2, DP1 receptor (Homo sapiens, UniProt Q13258).
T2 construct: expressed in transfected cells
T2 sequence (Q13258 1-359): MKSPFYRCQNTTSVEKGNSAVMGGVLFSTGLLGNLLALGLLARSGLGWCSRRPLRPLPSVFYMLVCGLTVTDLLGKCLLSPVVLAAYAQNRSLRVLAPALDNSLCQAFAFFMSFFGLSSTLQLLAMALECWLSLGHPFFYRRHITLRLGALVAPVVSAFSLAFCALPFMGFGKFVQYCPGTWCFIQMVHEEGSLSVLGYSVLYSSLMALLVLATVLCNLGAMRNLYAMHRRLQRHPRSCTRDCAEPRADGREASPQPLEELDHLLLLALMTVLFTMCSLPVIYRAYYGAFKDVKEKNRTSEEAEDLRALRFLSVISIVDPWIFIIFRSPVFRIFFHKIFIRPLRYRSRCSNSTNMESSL
Described as above. Particulars: Table 3 (Example 5); read-out: EC50, DP receptor. It counts as cell-based. As to the method:
as §3

Another data set deals with T3, EP2 receptor (Homo sapiens, UniProt P43116).
T3 construct: expressed in transfected cells
T3 sequence (P43116 whole entry): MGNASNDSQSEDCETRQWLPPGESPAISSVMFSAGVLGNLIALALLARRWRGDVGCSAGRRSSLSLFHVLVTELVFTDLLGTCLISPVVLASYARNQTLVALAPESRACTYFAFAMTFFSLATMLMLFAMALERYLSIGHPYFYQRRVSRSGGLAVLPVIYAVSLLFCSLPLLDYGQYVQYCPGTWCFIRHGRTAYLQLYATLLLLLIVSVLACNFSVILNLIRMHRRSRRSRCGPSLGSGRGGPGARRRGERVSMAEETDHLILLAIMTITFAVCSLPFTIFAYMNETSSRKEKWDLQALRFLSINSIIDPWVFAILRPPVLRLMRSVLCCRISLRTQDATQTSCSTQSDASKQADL
The description is as above. It counts as cell-based. Conditions: Table 3 (Example 5); read-out: EC50, EP receptor. The protocol:
as §3

T1 sequence (P43119 whole entry): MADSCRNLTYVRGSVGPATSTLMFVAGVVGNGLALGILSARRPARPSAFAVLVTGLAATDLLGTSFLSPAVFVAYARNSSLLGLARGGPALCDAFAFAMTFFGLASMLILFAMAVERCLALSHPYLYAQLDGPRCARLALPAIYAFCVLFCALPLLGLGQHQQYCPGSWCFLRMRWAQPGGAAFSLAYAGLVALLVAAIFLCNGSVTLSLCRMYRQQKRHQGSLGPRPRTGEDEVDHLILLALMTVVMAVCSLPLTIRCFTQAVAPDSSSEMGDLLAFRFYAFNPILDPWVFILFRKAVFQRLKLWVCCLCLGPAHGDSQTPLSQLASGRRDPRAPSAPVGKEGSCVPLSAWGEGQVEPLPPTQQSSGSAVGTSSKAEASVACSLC

Broadly, the EC50 is the midpoint of the concentration-response curve. `CCCCC[C@H](O)CC[C@@H]1[C@H]2Cc3cccc(OCC(=O)O)c3C[C@H]2C[C@H]1O` [Treprostinil]: the “thermal paw withdrawal time vs PBS treated group” value with Sprague Dawley rats [1] is recorded as “statistically significantly faster paw withdrawal time”. Further, in the data set with Sprague Dawley rats [2] (100 μg/mL, each of 15 min and 90 min), the mean clinical score entry was “non-zero”. Further, in the data set on Sprague Dawley rats [2] (both doses, 90 minutes), the “clinical score vs phosphate buffer treated group (statistically significant increase)” value was “same effect”. In addition, the “von Frey withdrawal force threshold vs phosphate buffer group” value with Sprague Dawley rats [3] is recorded as “reduced withdrawal force threshold”. Also, the concentration for a half-maximal effect (EC50) is 0.0779 nM on IP1 receptor, 0.078 nM at DP1 receptor and 0.537 nM at EP2 receptor.
